Data from patent US7625863B2, “Treatment of patients with dysfunctional cardiac sodium channels” (The MetroHealth System, priority 2006, dated 2009).
Values joined by “and” are separate entries in the source; they are usually repeats but may differ in a detail not shown here. Equal values may be shown once. “Also recorded” adds a separate entry of the source. Where no end group is shown, it is not given here.

Experiments:
[1] = tested on: hNav1.5 protein fragments centered on 558 fused to YFP; assay: FRET between hNav1.5 protein fragments centered on 558 fused to CFP or YFP; format: cell-based, human; conditions: coexpressed with homotypic YFP fragment
Excerpt: (§1) The beam splitter was the Chroma 86002v2bs multiband beam splitter for ECFP and EYFP (Rockingham, Vt.).
(§2) The corrected FRET ratio was defined as FRETc/IDD.

[2] = biological target: T1, hNav1.5 protein fragments centered on 558 fused to YFP (Homo sapiens, UniProt Q14524); assay: as above; format: cell-based; conditions: coexpressed with heterotypic H558-YFPf, internalized compartments
T1 construct: Fragments centered on 558 (40 amino acids) were fused to either CFP or YFP; expressed in transfected cells
Excerpt: as §1, §2

[3] = tested on: WT-SCN5A+C373Y-SCN5A channels; format: cell-based, human
Protocol: (§3) Expression of hNav1.5 in HEK293 Cells: Transient transfections of SCN5A expressed in GFP-IRES were performed in human embryonic kidney cells (HEK293) with the Polyfect transfection kit (Qiagen, Valencia, Calif.) according to the manufacturer's protocol for 24 hours.
(§4) Electrophysiology: Macroscopic sodium currents from transfected cells were recorded using the whole-cell configuration of the patch-clamp technique as previously described. (Deschenes I, et al., Cardiovasc Res. 2000; 46:55-65). Cells that emitted green fluorescence and expressed INa-like currents were considered to express mutants and/or polymorphisms of hNav1.5. Patch electrodes were made from 8161 Corning glass (Dow-Corning, Midland, Mich.). Low-resistance electrodes (<2 MΩ) were used, and a routine-series resistance compensation of an Axopatch 200A was performed to values >80% to minimize the voltage-clamp errors. Voltage-clamp command pulses were generated by a microcomputer using PCLAMP software version 9.02 (Axon Instruments, Foster City, Calif.). To stabilize the current, experiments were performed 10 minutes after entering whole-cell configuration. Membrane currents were filtered at 5 kHz and digitized with 12-bit resolution. […]
(§5) Voltage dependence of steady-state inactivation was determined by 500-ms prepulses ranging from −140 to −30 mV. […]

[4] = biological target: T2, C373Y-SCN5A channels (Homo sapiens, UniProt Q14524, C373Y); format: cell-based
T2 construct: expressed in transfected cells; host or cells: HEK293
Protocol: as §3, §4, §5

[5] = biological target: T3, H558R-SCN5A+R282H-C373Y-SCN5A channels (Homo sapiens, UniProt Q14524, H558R); assay: MTSET block of whole-cell sodium current, H558R-SCN5A+R282H-C373Y-SCN5A; format: cell-based; conditions: 1 μmol/L MTSET, after 10 minutes, 1 μg + 1 μg, HEK293
T3 construct: expressed in transfected cells; host or cells: HEK293
Protocol: as §3, §4, §5

[6] = tested on: YFP-1022; assay: FRET folding study of non-mutated channel construct in HEK293 cells; format: cell-based, human; conditions: non-mutated YFP-1022 co-expressed with peptide
Excerpt: Image Analysis and Calculation of Fluorescence Resonance Energy Transfer Ratios: Images were acquired with and Olympus IX71 fluorescent microscope that was fitted with a Hamamatsu ORCA-ER charge coupled device (12 bit) and controlled by the SLIDEBOOK software package from Intelligent Imaging Innovations (Denver, Colo.). Filter cube specifications for the fluorescent channels were as follows for excitation and emission, respectively: enhanced cyan fluorescent protein (CFP), 430±25 and 470±30 nm; enhanced yellow fluorescent protein (YFP), 500±20 and 535±30 nm, and fluorescence resonance energy transfer (FRET), 430±25 and 535±30 nm.
Image analysis involved three basic operations: subtraction of background autofluorescence and blurred light, quantification of fluorescence intensity, and calculation of a corrected FRET (FRETc) using the following equation: FRETc=(IDA−aIAA−dIDD)/IDD,
Where IDA is the fluorescence intensity of the cell measured from the FRET filter set and IDD and IAA are the fluorescent intensities of the same cell measured from the CFP (donor) and YFP (acceptor) filter sets, respectively. The cross-talk coefficients, a and d, are considered constant and a property of our microscope's filter sets, with a=0.03 and d=0.63. The corrected FRET ratio (FRETc) includes normalization to IDD to correct for variances in protein expression from cell to cell. […]

[7] = biological target: T4, WT channels (Nav1.5) (Homo sapiens, UniProt Q14524); assay: Whole cell patch clamp of sodium currents in HEK293 cells co-expressing WT channels and polymorphic peptide; format: cell-based
T4 construct: expressed in transfected cells; host or cells: HEK293
Excerpt: Creation of Channel Fragments: Channel fragments were created by amplifying a small piece of either the wild type or the H558R polymorphic channel. These pieces were ligated into either the pcDNA3 vector or the pECFP-N3 vector (BD Biosciences Clonetech). The sequences for the fragments are: Wild Type 20 amino acid-[…] (SEQ ID NO: 10), Polymorphic 40 amino acid-[…] (SEQ ID NO: 4), and polymorphic 20 amino acid-[…] (SEQ ID NO: 3).
Expression of Nav1.5 and Fragments in HEK293 Cells: Transient transfection of Nav1.5 and Nav1.5 fragments into human embryonic kidney (HEK293) cells was accomplished using the Polyfect transfection kit (Qiagen, Valencia, Calif.) according to the manufacturer's protocol for 24 hours. When channels were expressed alone, […] of channel cDNA was used. For co-transfections, 1 μg of channel cDNA and 1 μg of fragment cDNA were combined.
Electrophysiology: Macroscopic sodium currents from transfected cells were recorded using the whole cell configuration of the patch clamp technique as previously described (Deschenes, I., et al., 2000 Cardiovasc. Res. 46: 55-65). Cells that emitted green fluorescence were considered successfully transfected. Patch electrodes were made from 1.5 mm thin walled glass capillaries (World Precision Instruments, Sarasota, Fla.). Low resistance electrodes (<2MΩ) were used, and a routine series resistance compensation of an Axopatch 200A was preformed to values >80% to minimize voltage clamp errors. Voltage clamp command pulses were generated by a microcomputer using PCLAMP software version 9.02 (Axon Instruments, Foster City, Calif.). To allow currents to stabilize, experiments were performed 10 minutes after entering whole cell configuration. Membrane currents were filtered at 5 kHZ and digitized with 12-bit resolution. The internal solution contained (in mmol/L) NaCl 35, CsF 105, EGTA 10, and Cs-HEPES 10 adjusted to pH7.4. […]
Whole cell sodium current densities were measured by dividing the peak current obtained from stepping in 10 mV intervals from −80 to 30 mV from the holding potential of −120 mV by the cell capacitance. Cell capacitance was determined by integrating the area under the capacitive transient of a pulse from −80 mV to −70 mV. […]
Voltage dependence of steady state inactivation was determined by 500 ms prepulses ranging from −140 to −30 mV (FIG. 7B inset). […]
Conductance was calculated from peak current obtained by holding the resting membrane potential at −120 mV and stepping in 10 mV intervals from −80 mV to 20 mV according to the equation: G=I/(Vm−Vrec)
The conductance was also fit to a Boltzmann distribution. Time constant of inactivation was measured by fitting individual current traces from the peak current to the end of the pulse with a single exponential: I(t)=A*exp(−t/τ)

[8] = WT channels treated with polymorphic peptide, HEK293

With “R558-CFPf: hNav1.5 fragment centered on 558 (40 amino acids) with R558, fused to CFP (GSEADFADDENSTAGESESHRTSLLVPWPLRRTSAQGQPS; also: fused to CFP (carrier left off))” the FRETc [1] was 0.01±0.01 and the FRETc [2] was 0.04±0.02.

In the case of `C[N+](C)(C)CCSS(C)(=O)=O.[Br-]` [MTSET, [2-(trimethylammonium)ethyl]methanethiosulfonate bromide], the “decrease of whole-cell sodium current” value [3] is reported as 42.6±9.5% and 50%, the “decrease of peak current density” value [4] is reported as “does not significantly decrease peak current densities; also recorded: does not block” and the “reduction of whole-cell sodium current” value [5] is reported as 48.1±10.0% and 50%.

In the case of “GSEADFADDENSTAGESESHRTSLLVPWPLRRTSAQGQPS [R558-40aa, 40 amino acid fragment of Nav1.5 containing the H558R polymorphism, expressed from cDNA]”, the “FRETc compared with YFP-1022 alone” value [6] is reported as “similar”, the current density ([7]; HEK293 cells, WT channels co-expressed with the 40 amino acid fragment, WT alone −337.7±105.8) is reported as −474.1±125.9 pA/pF and the “Conductance (V1/2)” value [7, 8] is reported as −40.2 ± 3.3 mV. The “Steady State Inactivation (V1/2)” value [7, 8] was −90.0 ± 1.6 mV and the “Time Constant of Inactivation compared to WT” value ([7]; WT channels with peptide, FIG. 7D) was “behaved similarly to WT”.

“H558-CFPf: hNav1.5 fragment centered on 558 (40 amino acids) with H558, fused to CFP (GSEADFADDENSTAGESESHHTSLLVPWPLRRTSAQGQPS; also: fused to CFP (carrier left off))” gave an FRETc [1] of 0.01±0.01.

“NSTAGESESHRTSLLVPWPL [R558-20aa, 20 amino acid fragment of Nav1.5 containing the H558R polymorphism, expressed from cDNA]” was tested, and the “FRETc compared with YFP-1022 alone” value [6] was “similar”.
